Where two headings read alike, the source gives them in different places.
Key:
[1] = Open Field Test, compound X dose study; assay type: in vivo, BALB/c mice; settings: 10 mg/kg i.p.; day 25; better than the other concentrations
Experimental: 50, 2 month old BALB/c mice, 10 mice per group, on ad libitum diet were divided to 5 experimental groups with equal weight. On the 2, 3, 4, 5, 9, 11, 16, 18, 23, 25, 29, 31 days mice were administered with either vehicle or compound x 0.1, 1, 10 mg/kg i.p. or imipramine 10 mg/kg Open Field Test was evaluated on day 25. The more time they spent on the […] the less depressed.

p-SAPK/JNK = p-SAPK/JNK levels in the hypothalamus; assay type: in vivo, BALB/c mice; settings: FIG. 16
Source text: (§1) 50, 2 month old female BALB/c mice, 10 mice per group, on ad libitum diet were separated (each mouse in a different cage) for 9 days (Separation Stress, a model for depression).

[2] = Body weight of C57BL/6 mice; assay type: in vivo
Source text: (§2) Thus the compounds of the invention can be used to treat conditions that are mediated by the enhancement of leptin levels. In obesity there is high leptin level however the leptin receptors are not responding. High CNS leptin level has anti-depression effect however, if there is tolerance there is no anti depression effect.

[3] = Tail Suspension Test, compound X dose study; assay type: in vivo, BALB/c mice; settings: 10 mg/kg i.p.; day 23; more than imipramine and other concentrations
Source text: (§3) Tail suspension test (TST): Animals are suspended upside down by adhesive tape placed 1 cm from the tail tip. The elevation of the animal is 50 cm from the nearest surface. […] Statistical analysis compares the magnitude of immobility (in seconds) between different treatment groups. In this test, antidepressants characteristically cause an increase of the time fraction spent by the animal as active at the expense of the inactivity period.
50, 2 month old BALB/c mice, 10 mice per group, on ad libitum diet were divided to 5 experimental groups with equal weight. On the 2, 3, 4, 5, 9, 11, 16, 18, 23, 25, 29, 31 days mice were administered with either vehicle or compound x 0.1, 1, 10 mg/kg i.p. or imipramine 10 mg/kg.

NPY protein = NPY protein expression by western blot; assay type: in vivo, BALB/c mice; settings: FIG. 13
Experimental: (§4) 50, 2 month old female BALB/c mice, 10 mice per group, on ad libitum diet were separated (each mouse in a different cage) for 9 days (Separation Stress, a model for depression). On the 7, 8, 9, 34-40 days mice were administered with either vehicle or compounds X, 12 and 15 (1 mg/kg i.p.) or imipramine 10 mg/kg (antidepressant).

leptin = test: Leptin levels in the hypothalamus; assay type: in vivo, BALB/c mice; settings: FIG. 15
Source text: as §1

[4] = Forced Swim Test (FST), separated BALB/c mice; assay type: in vivo; settings: compounds 1 mg/kg i.p., imipramine 10 mg/kg i.p.; day 8; in relation to vehicle
Experimental: Forced swim test (FST): The animal is placed in a circular, transparent, plexiglass tank measuring 21 cm in diameter and 46 cm in height containing water 15 cm high, maintained at 23-25° C. […] Also measured is the latency period, the time elapsing, for each animal from immersion in the water tank until the first occurrence of immobility. Since climbing activity is minimal in mice, […].
as §4, with “x,” for “X,”, “(antidepressant) i.p. and tested in the forced swim test (FST) on day 8.” for “(antidepressant).”

[5] = Weight and food consumption in OB/OB mice which lack the leptin gene; assay type: in vivo
Source text: as §2

POMC protein = POMC protein expression by western blot; assay type: in vivo, BALB/c mice
Experimental: as §4, with “x,” for “X,”, “(antidepressant). POMC protein was monitored by western blot.” for “(antidepressant).”

[6] = Tail Suspension Test, separated BALB/c mice (model for depression); assay type: in vivo; settings: compounds 1 mg/kg i.p., imipramine 10 mg/kg i.p.; day 7; in relation to vehicle
Source text: as §3
50, 2 month old female BALB/c mice were separated (each mouse in a different cage) for 9 days period (a model for depression). On days 7, 8, 9, 34-40 mice were administered with either vehicle or compounds X, 12 and 15 (1 mg/kg i.p.) or imipramine 10 mg/kg (anti-depressant) i.p. and tested in the Tail suspension test on day 7 of the experiment (10 mice per group).

CCCCCCCC/C=C\CCCCCCCC(=O)N[C@H](CO)C(C)C [Compound 1, oleoyl-L-valinol amide]
motor activity in Open Field Test [1]: improved motor activity like the impramine | p-SAPK/JNK levels in the hypothalamus (p-SAPK/JNK): significant decrease | body weight [2]: decreased body weight | motor activity in Tail Suspension Test [3]: improved significantly motor activity | NPY protein expression in the hypothalamus (NPY protein): decrease significantly | leptin levels in the hypothalamus (leptin): tendency to increase | swimming activity in forced swim test [4]: significantly enhanced swimming activity | food consumption [5]: did not change | weight (weight loss) [5]: did not change | weight (weight loss) ([5]; listed as OVA): not body weight | weight (weight loss) ([5]; listed as X): do not produce weight loss | POMC protein expression in the hippocampus (POMC protein; hippocampus, FIG. 12): increased significantly | POMC protein expression in the hypothalamus (POMC protein; hypothalamus, FIG. 11): increased significantly | activity in Tail Suspension Test [6]: significantly enhanced activity
